Converted amounts (≈) assume the structure as drawn.
Columns and labels:
Assay type in all cases: cell-based
[1] = system: Bacillus subtilis ATCC 6633; assay: Antibacterial activity, agar-dilution MIC, organism No. 14; conditions: Bacillus subtilis, ATCC6633, read-out: Minimum Inhibitory Concentration
In short: (§1)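 Testing uses agar dilution in bouillon agar. MIC = lowest inhibiting concentration, μg/ml medium.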

[2] = system: Proteus morganii IFO 3848; assay: Antibacterial activity, agar-dilution MIC, organism No. 18; conditions: Morganella morganii, IFO3848, read-out: Minimum Inhibitory Concentration
In short: as §1

[3] = system: Pseudomonas aeruginosa IFO 3445; assay: Antibacterial activity, agar-dilution MIC, organism No. 15; conditions: Pseudomonas aeruginosa, IFO3445, read-out: Minimum Inhibitory Concentration
In short: as §1

[4] = system: Salmonella paratyphi-A 1015; assay: Antibacterial activity, agar-dilution MIC, organism No. 10; conditions: Salmonella enterica, PARATYPHI, read-out: Minimum Inhibitory Concentration
In short: as §1

[5] = system: Salmonella enteritidis G 14; assay: Antibacterial activity, agar-dilution MIC, organism No. 12; conditions: Salmonella enterica, ENTERITIDIS, read-out: Minimum Inhibitory Concentration
In short: as §1

[6] = system: Staphylococcus aureus FDA 209PJc-1; assay: Antibacterial activity, agar-dilution MIC, organism No. 1; conditions: Staphylococcus aureus, FDA209PJC1, read-out: Minimum Inhibitory Concentration
In short: as §1

[7] = system: Escherichia coli K12 C600 IAM 1264; assay: Antibacterial activity, agar-dilution MIC, organism No. 6; conditions: Escherichia coli, IAM1264, read-out: Minimum Inhibitory Concentration
In short: as §1

[8] = system: Staphylococcus aureus MS 353; assay: Antibacterial activity, agar-dilution MIC, organism No. 3; conditions: Staphylococcus aureus, MS353, read-out: Minimum Inhibitory Concentration
In short: as §1

[9] = system: Streptococcus faecium IFO 3826; assay: Antibacterial activity, agar-dilution MIC, organism No. 27; conditions: Enterococcus faecium, IFO3826, read-out: Minimum Inhibitory Concentration
In short: as §1

[10] = system: Proteus rettgeri IFO 3850; assay: Antibacterial activity, agar-dilution MIC, organism No. 22; conditions: Providencia rettgeri, IFO3850, read-out: Minimum Inhibitory Concentration
In short: as §1

[11] = system: Candida albicans IAM 4905; assay: Antifungal activity, agar-dilution MIC, organism No. 29; conditions: Candida albicans, IAM4905, read-out: Minimum Inhibitory Concentration
In short: as §1

Proteus vulgaris OX-19 = assay: Antibacterial activity, agar-dilution MIC, organism No. 20; conditions: Proteus vulgaris, OX19, read-out: Minimum Inhibitory Concentration
In short: as §1

[12] = system: Serratia marcescens IAM 1184; assay: Antibacterial activity, agar-dilution MIC, organism No. 13; conditions: Serratia marcescens, IAM1184, read-out: Minimum Inhibitory Concentration
Text: Agar-dilution method was used for determination of the antibacterial activity and antifungal activity while using bouillon-agar culture medium, and the minimum inhibitory concentration of the specimen was expressed by μg/ml of the culture medium.

[13] = system: Streptococcus pyogenes IFO 3340; assay: Antibacterial activity, agar-dilution MIC, organism No. 26; conditions: Streptococcus pyogenes, IFO3340, read-out: Minimum Inhibitory Concentration
In short: as §1

[14] = system: Aspergillus niger IFO 6342; assay: Antifungal activity, agar-dilution MIC, organism No. 30; conditions: Aspergillus niger, IFO6342, read-out: Minimum Inhibitory Concentration
In short: as §1

[15] = system: Klebsiella pneumoniae PCI-602; assay: Antibacterial activity, agar-dilution MIC, organism No. 7; conditions: Klebsiella pneumoniae, PCI602, read-out: Minimum Inhibitory Concentration
In short: as §1

[16] = system: Streptococcus pyogenes Cook; assay: Antibacterial activity, agar-dilution MIC, organism No. 4; conditions: Streptococcus pyogenes, read-out: Minimum Inhibitory Concentration
In short: as §1

[17] = system: Micrococcus luteus ATCC 9341; assay: Antibacterial activity, agar-dilution MIC, organism No. 25; conditions: Micrococcus luteus, ATCC9341, read-out: Minimum Inhibitory Concentration
In short: as §1

[18] = system: Proteus mirabilis IFO 3849; assay: Antibacterial activity, agar-dilution MIC, organism No. 19; conditions: Proteus mirabilis, IFO3849, read-out: Minimum Inhibitory Concentration
In short: as §1

Enterobacter cloacae 963 = assay: Antibacterial activity, agar-dilution MIC, organism No. 24; conditions: Enterobacter cloacae, 963, read-out: Minimum Inhibitory Concentration
In short: as §1

[19] = system: Pseudomonas aeruginosa NCTC 10490; assay: Antibacterial activity, agar-dilution MIC, organism No. 16; conditions: Pseudomonas aeruginosa, NCTC10490, read-out: Minimum Inhibitory Concentration
In short: as §1

Salmonella typhi 901 = assay: Antibacterial activity, agar-dilution MIC, organism No. 9; conditions: Salmonella enterica, TYPHI, read-out: Minimum Inhibitory Concentration
In short: as §1

[20] = system: Staphylococcus aureus Terajima; assay: Antibacterial activity, agar-dilution MIC, organism No. 2; conditions: Staphylococcus aureus, read-out: Minimum Inhibitory Concentration
In short: as §1

[21] = system: Salmonella typhimurium IID 971; assay: Antibacterial activity, agar-dilution MIC, organism No. 8; conditions: Salmonella enterica, read-out: Minimum Inhibitory Concentration
In short: as §1

[22] = system: Escherichia coli NIHJ-JC-2; assay: Antibacterial activity, agar-dilution MIC, organism No. 5; conditions: Escherichia coli, NIHJJC2, read-out: Minimum Inhibitory Concentration
In short: as §1

[23] = system: Enterobacter aerogenes ATCC 13048; assay: Antibacterial activity, agar-dilution MIC, organism No. 23; conditions: Klebsiella aerogenes, ATCC13048, read-out: Minimum Inhibitory Concentration
In short: as §1

[24] = system: Pseudomonas aeruginosa PAO 1; assay: Antibacterial activity, agar-dilution MIC, organism No. 17; conditions: Pseudomonas aeruginosa, PAO1, read-out: Minimum Inhibitory Concentration
In short: as §1

Proteus vulgaris HX-19 = assay: Antibacterial activity, agar-dilution MIC, organism No. 21; conditions: Proteus vulgaris, HX19, read-out: Minimum Inhibitory Concentration
In short: as §1

[25] = system: Salmonella shottmuelleri 8006; assay: Antibacterial activity, agar-dilution MIC, organism No. 11; conditions: Salmonella, 8006, read-out: Minimum Inhibitory Concentration
In short: as §1

Row | Compound | MIC [1] [µg/mL] | MIC [2] [µg/mL] | MIC [3] [µg/mL] | MIC [4] [µg/mL] | MIC [5] [µg/mL] | MIC [6] [µg/mL] | MIC [7] [µg/mL] | MIC [8] [µg/mL] | MIC [9] [µg/mL] | MIC [10] [µg/mL] | MIC [11] [µg/mL] | MIC (Proteus vulgaris OX-19) [µg/mL] | MIC [12] [µg/mL] | MIC [13] [µg/mL] | MIC [14] [µg/mL] | MIC [15] [µg/mL] | MIC [16] [µg/mL] | MIC [17] [µg/mL] | MIC [18] [µg/mL] | MIC (Enterobacter cloacae 963) [µg/mL] | other results
1 | [C-]#[N+]C12CC3(/C=C/C(=O)Nc4nc[nH]n4)OC3C1O2 (stereo not shown) [compound 78] | 100 (≈ 386 µM) | 50 (≈ 193 µM) | > 200 | 50 (≈ 193 µM) | 50 (≈ 193 µM) | 50 (≈ 193 µM) | 100 (≈ 386 µM) | 50 (≈ 193 µM) | 200 (≈ 772 µM) | 200 (≈ 772 µM) | > 200 | 50 (≈ 193 µM) | > 200 | 100 (≈ 386 µM) | 200 (≈ 772 µM) | 200 (≈ 772 µM) | 100 (≈ 386 µM) | 100 (≈ 386 µM) | 200 (≈ 772 µM) | > 200 | MIC [19]: > 200 µg/mL; MIC (Salmonella typhi 901): 25 µg/mL (≈ 96.4 µM); MIC [20]: 200 µg/mL (≈ 772 µM); MIC [21]: 100 µg/mL (≈ 386 µM); MIC [22]: 100 µg/mL (≈ 386 µM); MIC [23]: > 200 µg/mL; MIC [24]: > 200 µg/mL; MIC (Proteus vulgaris HX-19): 50 µg/mL (≈ 193 µM); MIC [25]: 50 µg/mL (≈ 193 µM)
2 | [C-]#[N+]C12CC3(/C=C/C(=O)Nc4ccc(O)cc4)OC3C1O2 (stereo not shown) [compound 56] | 12.5 (≈ 44 µM) | 1.56 (≈ 5.49 µM) | > 200 | 3.13 (≈ 11 µM) | 6.25 (≈ 22 µM) | 1.56 (≈ 5.49 µM) | 25 (≈ 87.9 µM) | 1.56 (≈ 5.49 µM) | 50 (≈ 176 µM) | 3.13 (≈ 11 µM) | 25 (≈ 87.9 µM) | 3.13 (≈ 11 µM) | 50 (≈ 176 µM) | 3.13 (≈ 11 µM) | 50 (≈ 176 µM) | 1.56 (≈ 5.49 µM) | 25 (≈ 87.9 µM) | 0.78 (≈ 2.74 µM) | 12.5 (≈ 44 µM) | 200 (≈ 704 µM) | MIC [19]: > 200 µg/mL; MIC (Salmonella typhi 901): 6.25 µg/mL (≈ 22 µM); MIC [20]: 6.25 µg/mL (≈ 22 µM); MIC [21]: 12.5 µg/mL (≈ 44 µM); MIC [22]: 25 µg/mL (≈ 87.9 µM); MIC [23]: > 200 µg/mL; MIC [24]: > 200 µg/mL; MIC (Proteus vulgaris HX-19): 1.56 µg/mL (≈ 5.49 µM); MIC [25]: 3.13 µg/mL (≈ 11 µM)

From US4684664A, “Derivatives of β-(4-isocyano-1,2,3,4-diepoxycyclopentyl) acrylic acid” (Kureha Kagaku Kogyo Kabushiki Kaisha, priority 1984, dated 1987)
